Earlier results as cited in patent US20060153940A1, “Use of physiologically active fatty acids” (priority 2004, published 2006).

Q: With β-escin as the substance, how does the solubility in alcohol (alcohol) read?
A: The solubility in alcohol was “can be dissolved in alcohol”.

Q: What about the solubility in water (water) of the same substance?
A: The solubility in water was “practically water-insoluble”.
